Read-outs that look alike come from different tables or passages of the source.
What was measured:
[1] = test system: Lck; conditions: read-out: IC50 Lck; cited from earlier work
[2] = test system: Aurora A; conditions: @ 3 nM; cited from earlier work
[3] = test system: bone marrow blasts; experiment: Phase 1: efficacy; format: in vivo, human
[4] = test system: Aurora B; conditions: @ 3 nM; cited from earlier work
[5] = test system: aurora kinase B substrate pHH3; experiment: Western blot of PBMCs from patient blood; format: in vivo, human
[6] = test system: Fit3; conditions: @ 15 nM; cited from earlier work
[7] = format: in vivo, human
[8] = test system: Src; conditions: read-out: IC50 Src; cited from earlier work
[9] = Phase 1: plasma pharmacokinetics, Cycle 1; format: in vivo, human; conditions: for clearance / Tmax / AUC(0-inf) / Cmax: human
[10] = test system: RSK-1; conditions: read-out: IC50 RSK-1; cited from earlier work
[11] = test system: c-kit; conditions: @ 250 nM; cited from earlier work
[12] = test system: AML; conditions: eight of 32 adult AML patients; cited from earlier work
[13] = plasma, intravenous, 144 mg/m^2
[14] = plasma, intravenous, 160 mg/m^2
[15] = plasma, intravenous, 200 mg/m^2
[16] = plasma, intravenous, 216 mg/m^2

O=C(Nc1c[nH]nc1-c1nc2ccc(CN3CCOCC3)cc2[nH]1)NC1CC1 [AT9283]
IC50 [1]: 63 nM
inhibition of Aurora A [2]: 52% @ 3 nM
reduction in bone marrow blasts ([3]; Patient B, MTD 108 mg/m^2/day over 72h, 2 cycles, 62% at baseline v 32% at follow-up): 48%
objective remission (complete and partial) ([3]; all patients): no objective or partial remissions were observed
reduction in bone marrow blasts ([3]; approximately one-third of patients with relapsed/refractory AML): ≥ 38%
benefit in accelerated phase CML ([3]; both patients with accelerated phase CML, cytogenetic response in 1): evidence of benefit
benefit in myeloproliferative disease ([3]; patients with myeloproliferative disease): no sustained evidence of treatment benefit
inhibition of Aurora B [4]: 58% @ 3 nM
pHH3 phosphorylation in PBMCs ([5]; 3 mg/m^2/day (9 mg/m^2/72h), two of three patients): inhibition of pHH3 phosphorylation was observed
phosphorylation of aurora kinase B substrate pHH3 in PBMCs ([5]; MTD 108 mg/m^2/day (324 mg/m^2/72h), two of three patients): rapid inhibition of phosphorylation
inhibition of Fit3 [6]: 57% @ 15 nM
deaths ([7]; 13 deaths of 48 patients): 27%
MTD ([7]; 72-hour continuous infusion every 21 days): 324 mg/m^2/72h
MTD ([7]; 72-hour infusion): 108 mg/m^2/day
AE incidence overall: constipation ([7]; human, in vivo): 21%
AE incidence overall: diarrhea ([7]; human, in vivo): 29%
AE incidence overall: epistaxis ([7]; human, in vivo): 17%
AE incidence overall: fatigue ([7]; human, in vivo): 27%
AE incidence overall: febrile neutropenia ([7]; human, in vivo): 25%
AE incidence overall: gastrointestinal disorders ([7]; human, in vivo): 75%
AE incidence overall: headache ([7]; human, in vivo): 21%
AE incidence overall: nausea ([7]; human, in vivo): 29%
AE incidence overall: peripheral edema ([7]; human, in vivo): 25%
AE incidence overall: pneumonia ([7]; human, in vivo): 29%
AT9283-related AE incidence: alopecia ([7]; human, in vivo): 8%
AT9283-related AE incidence: nausea ([7]; human, in vivo): 15%
AT9283-related AE incidence: stomatitis ([7]; human, in vivo): 13%
incidence of cardiac tachyarrythmias ([7]; human, in vivo): 15%
patients withdrawn after treatment due to AEs ([7]; human, in vivo): 15%
incidence of AEs (highest) ([7]; human, in vivo, 72 h): 100%
incidence of AEs (lowest) ([7]; human, in vivo, 72 h): 29%
DLTs ([7]; in vivo): myocardial infarction, hypertension, cardiomyopathy, tumor lysis syndrome, pneumonia, and multiorgan failure
left ventricular ejection fraction (LVEF) after severe drop ([7]; in vivo): 20–25%
tolerability of regimen ([7]; in vivo): unacceptably toxic
IC50 [8]: 97 nM
dose proportionality of exposure ([9]; Cmax and AUC0-inf): generally proportional to dose
clearance ([9]; in vivo): 5.36 mL/min/kg
Tmax ([9]; in vivo, Tmax): 53.8 h
Tmax ([9]; in vivo, Tmax of mean maximum plasma concentrations): 41 to 62 h
AUC(0-inf) ([9]; plasma, intravenous, 9 mg/m^2): 465 ng·h/mL
Cmax ([9]; plasma, intravenous, 9 mg/m^2): 7.35 ng/mL
clearance ([9]; plasma, intravenous, 9 mg/m^2): 9.52 mL/min/kg
Tmax ([9]; plasma, intravenous, 9 mg/m^2, Tmax, Cycle 1 mean plasma, 9 mg/m^2, 72 hr infusion (n=3)): 47.2 h
AUC(0-inf) ([9]; plasma, intravenous, 18 mg/m^2): 1070 ng·h/mL
Cmax ([9]; plasma, intravenous, 18 mg/m^2): 18.1 ng/mL
clearance ([9]; plasma, intravenous, 18 mg/m^2): 7.17 mL/min/kg
Tmax ([9]; plasma, intravenous, 18 mg/m^2, Tmax, Cycle 1 mean plasma, 18 mg/m^2, 72 hr infusion (n=3)): 62 h
AUC(0-inf) ([9]; plasma, intravenous, 36 mg/m^2): 2860 ng·h/mL
Cmax ([9]; plasma, intravenous, 36 mg/m^2): 41.1 ng/mL
clearance ([9]; plasma, intravenous, 36 mg/m^2): 6.03 mL/min/kg
Tmax ([9]; plasma, intravenous, 36 mg/m^2, Tmax, Cycle 1 mean plasma, 36 mg/m^2, 72 hr infusion (n=7)): 53.2 h
AUC(0-inf) ([9]; plasma, intravenous, 72 mg/m^2): 16300 ng·h/mL
Cmax ([9]; plasma, intravenous, 72 mg/m^2): 131 ng/mL
clearance ([9]; plasma, intravenous, 72 mg/m^2): 1.84 mL/min/kg
Tmax ([9]; plasma, intravenous, 72 mg/m^2, Tmax, Cycle 1 mean plasma, 72 mg/m^2, 72 hr infusion (n=3)): 46.7 h
AUC(0-inf) [9, 13]: 14300 ng·h/mL
Cmax [9, 13]: 229 ng/mL
clearance [9, 13]: 4.27 mL/min/kg
Tmax ([9]; plasma, intravenous, 144 mg/m^2, Tmax, Cycle 1 mean plasma, 144 mg/m^2, 72 hr infusion (n=4)): 54.7 h
AUC(0-inf) [9, 14]: 13700 ng·h/mL
Cmax [9, 14]: 164 ng/mL
clearance [9, 14]: 5.61 mL/min/kg
Tmax ([9]; plasma, intravenous, 160 mg/m^2, Tmax, Cycle 1 mean plasma, 160 mg/m^2, 96 hr infusion (n=12)): 59.3 h
AUC(0-inf) [9, 15]: 19100 ng·h/mL
Cmax [9, 15]: 184 ng/mL
clearance [9, 15]: 4.58 mL/min/kg
Tmax ([9]; plasma, intravenous, 200 mg/m^2, Tmax, Cycle 1 mean plasma, 200 mg/m^2, 120 hr infusion (n=4)): 69 h
AUC(0-inf) [9, 16]: 13000 ng·h/mL
Cmax [9, 16]: 228 ng/mL
clearance [9, 16]: 7.13 mL/min/kg
Tmax ([9]; plasma, intravenous, 216 mg/m^2, Tmax, Cycle 1 mean plasma, 216 mg/m^2, 72 hr infusion (n=3)): 41.3 h
Cmax ([9]; plasma, intravenous, 486 mg/m^2): 1280 ng/mL
Tmax ([9]; plasma, intravenous, 486 mg/m^2, Tmax, Cycle 1 mean plasma, 486 mg/m^2, 72 hr infusion (n=3)): 51 h
inhibition of c-kit [11]: 46% @ 250 nM

CCN(CCCOc1ccc2c(Nc3cc(CC(=O)Nc4cccc(F)c4)n[nH]3)ncnc2c1)CCOP(=O)(O)O [AZD1152]
haematologic response according to IWG AML criteria [12]: 25%

From article PMC4096861 (Clinical lymphoma, myeloma & leukemia, 2013)
